In patent publication US4470840A, “1-Triacontanol plant growth stimulator formulations” (Biochemical Research Corporation, priority 1981, dated 1984):

Legend:
Type in all cases: in vivo
[1] = tested on: Beans (cv. Blue Lakes Stringless, Early Bird); assay: Field trial: crop yield and seed size; details: 100 seeds, CaCl2 5 mM, no IAA, 1-triacontanol 0.25 mg/liter
Protocol: (§1) Field trials were conducted in Northern Virginia on plots that were replicated at least five items. Plots consisted of single rows of plants in blocks of three or more plots, with treatments being assigned randomly within each block.
(§2) Plants were fertilized with the fertilizers described in Table 1, and sprayed at air temperatures listed in the same Table. Spraying was usually avoided under windy conditions to avoid drift.

[2] = tested on: Sweet Corn (cv. Silver Queen, Early Sunglow, Jubilee); assay: Field trial: crop yield and seed size; details: for Percent increase in marketable yield: triacontanol 0.25 mg/l
Protocol: as §1, §2

[3] = tested on: Cucumbers (cv. Straight Eight, Improved White Spine); assay: Field trial: crop yield; details: for Increase (crop yield) / Fresh wt. (crop yield): cv. Improved White Spine, TRIACON-10, 1-triacontanol 0.25 mg/liter, pH 9.8
Protocol: as §1, §2

[4] = tested on: Hybrid Sweet Corn Seedlings (cv. Silver Queen); assay: Lengths of stems and total plant length of seedlings sprayed Day 7; details: T = 1-triacontanol 0.1 mg/liter
[5] = tested on: Field Corn (cv. Trojan TXS 94); assay: Field trial: crop yield and seed size; details: 1-triacontanol 0.25 mg/liter; for % increase (wt. of seed) / % increase (wt./15 ears) / Wt. of seed / Wt./15 ears: TRIACON-10, pH 10.4; for Percent increases (size of seeds) / Wt. of treated seed: cv. Trojan TXS 94, 1000 seeds; for Wt. of treated seed: control seed 252
Protocol: as §1
(§3) Plants were fertilized with the fertilizers described in Table 1, and sprayed at air temperatures listed in the same Table. Spraying was usually avoided under windy conditions to avoid drift. In the examples set forth herein, data were treated in a similar manner to those found in the greenhouse trials, with analysis of variance performed for each trial, and the use of a suitable statistical method for the analysis of results, preferably Duncan's multiple range test.

Peas (cv. Dark Skin) = assay: Field trial: marketable yield; details: 1-triacontanol 0.25 mg/liter, pH 8.7; for Fresh wt (marketable yield): per 12 plants per plot
Protocol: as §1, §3

Radishes (cv. Champion) = assay: Field trial: crop yield; details: 1-triacontanol 0.25 mg/liter, pH 9.7; for Dry wt. (crop yield): per twenty plants, without foliage
Protocol: as §1, §3

[6] = tested on: Field Corn Seedlings (cv. Trojan TXS 94, Pioneer 3780, WF9 X Bear 38); assay: Greenhouse trial: dry weight and water uptake of seedlings after foliar spraying; details: cv. Trojan TXS 94, no metal salt, 1-triacontanol 0.1 mg/liter
Protocol: In general, greenhouse trials were conducted as follows: eight to twelve seeds were sown per pot in Peat-Lite® Mix and received an average of 100 ml of water per day. After plants had the third true leaf (average), the various formulations were applied to the leaves as a fine mist at air temperatures listed in Table 1. Temperatures above 20° C., preferably 25°-30° C., are preferred.
The 1-triacontanol formulation most generally used consisted of a concentrate containing 5 mg of 1-triacontanol dissolved in 1 liter of acetone, with 20 ml of the concentrate being further dissolved to 1 liter with water having a pH between 8 and 10, with over a pH of 11 also being effective. The pH was adjusted with aqueous NaOH and the concentrate added just prior to spraying.
When other plant growth substances were added to the formulations, these were added either to the concentrate in the polar organic solvent or alternatively in the aqueous solution, depending on the solubility of the plant growth substance. All metal salts were added to the water used to spray the 1-triacontanol formulations. After spraying, preferably about four to nine days or more, plants were harvested with roots, and fresh weights were obtained. Plants were then dried in an oven, preferably at a temperature below 100° C., until constant weight was obtained, and dry weight values were obtained for each plot. Subtraction of the dry weights from the fresh weights gave the water uptake weights (water content) of each plot. The weights of the above mentioned seedlings were compared to the control weights to obtain the percent increases.
It is particularly advantageous to arrange each of the potted plants in size range categories corresponding to the number of replications used. For example, if five replications are employed, plants are divided into five size categories, normally measured by the height of the plants. Treatments are then assigned randomly within each block (size category). This removes the variation due to plant size for statistical purposes, as is well practiced in the art. The resulting data is analyzed using any appropriate means, which may include the least significant difference method (L.S.D. method), Duncan's multiple range test, as used here (Biometrics, 11: 1 (1955)), or other means.

[7] = tested on: Tomatoes (cv. Ponderosa Red Beefsteak, Red Cherry, Rutgers VF); assay: Field trial: marketable yield and seed size; details: for Percent increases (size of seeds) / Wt. of treated seed: 100 seeds; for Percent increases (size of seeds) / Wt. of treated seed / Fresh wt. (marketable yield) / Percent increases (marketable yield): 1-triacontanol 0.25 mg/liter; for Wt. of treated seed: control seed 0.32; for Fresh wt. (marketable yield) / Percent increases (marketable yield): pH 9 to 10
Protocol: as §1, §3

[8] = cv. Ponderosa Red Beefsteak, CaCl2 5 mM, no IAA
[9] = cv. Ponderosa Red Beefsteak, CaCl2 50 mM, IAA 0.01 mM
[10] = cv. Ponderosa Red Beefsteak, CaCl2 5 mM, no IAA (Formulation 12)
[11] = cv. Ponderosa Red Beefsteak, CaCl2 50 mM, IAA 10 μM (Formulation 16)
[12] = cv. Ponderosa Red Beefsteak, previous year
[13] = cv. Red Cherry, CaCl2 5 mM, no IAA (Formulation 12)
[14] = cv. Red Cherry, CaCl2 50 mM, IAA 10 μM (Formulation 16)
[15] = cv. Rutgers VF, CaCl2 5 mM, no IAA (Formulation 12)
[16] = cv. Rutgers VF, CaCl2 50 mM, IAA 10 μM (Formulation 16)

SMILES: CCCCCCCCCCCCCCCCCCCCCCCCCCCCCCO [1-Triacontanol, 1-triacontanol]
- Percent increases (size of seeds) [1]: +54%
- Wt. of treated seed ([1]; control seed 18.1): 27.8 g
- Percent increase in marketable yield ([2]; cv. Early Sunglow, CaCl2 10 mM, no IAA, pH 9.8): +47%
- Percent increase in marketable yield ([2]; cv. Early Sunglow, CaCl2 50 mM, IAA 10 μM, pH 9.8): +20%
- Percent increase in marketable yield ([2]; cv. Jubilee, CaCl2 10 mM, no IAA, pH 9.7): +44%
- Percent increase in marketable yield ([2]; cv. Jubilee, CaCl2 50 mM, IAA 10 μM, pH 9.7): +31%
- Percent increases (size of seeds) ([2]; cv. Silver Queen, 500 seeds, CaCl2 9 mM, no IAA, 1-triacontanol 0.25 mg/liter): +47%
- Wt. of treated seed ([2]; cv. Silver Queen, 500 seeds, CaCl2 9 mM, no IAA, 1-triacontanol 0.25 mg/liter, control seed 29.7 g): 43.8 g
- Percent increase in marketable yield ([2]; cv. Silver Queen, CaCl2 10 mM, no IAA, pH 10.4): +49%
- Percent increase in marketable yield ([2]; cv. Silver Queen, CaCl2 50 mM, IAA 10 μM, pH 10.4): +16%
- Increases (field trial data for the previous year) ([2]; cv. Silver Queen, previous year, three out of three trials): 51-54%
- Increase (crop yield) ([3]; CaCl2 5 mM): +88%
- Fresh wt. (crop yield) ([3]; CaCl2 5 mM, control 9575 g): 17980 g
- Fresh wt. (crop yield) ([3]; CaCl2 50 mM): 11725 g
- Increase (crop yield) ([3]; CaCl2 50 mM): +22%
- Increase over controls (crop yield) ([3]; cv. Straight Eight, previous year, pH 8.7, CaCl2 4.5 mM): 101%
- Increase in length "a" [4]: 0%
- Increase in length "b" [4]: +15%
- Length "a" (stem to the first leaf) ([4]; control 11.5 cm): 11.5 cm
- Length "b" (total plant length) ([4]; control 25.0 cm): 28.8 cm
- % increase (wt. of seed) ([5]; CaCl2 1 mM, no IAA): +27%
- % increase (wt./15 ears) ([5]; CaCl2 1 mM, no IAA): +33%
- Wt. of seed ([5]; CaCl2 1 mM, no IAA, control 1740 g): 2211 g
- Wt./15 ears ([5]; CaCl2 1 mM, no IAA, control 1777 g): 2356 g
- % increase (wt. of seed) ([5]; CaCl2 3 mM, IAA 0.01 mM): +34%
- % increase (wt./15 ears) ([5]; CaCl2 3 mM, IAA 0.01 mM): +46%
- Wt. of seed ([5]; CaCl2 3 mM, IAA 0.01 mM): 2342 g
- Wt./15 ears ([5]; CaCl2 3 mM, IAA 0.01 mM): 2950 g
- Percent increases (size of seeds) ([5]; CaCl2 1 mM, no IAA): +18%
- Wt. of treated seed ([5]; CaCl2 1 mM, no IAA): 297 g
- Percent increases (size of seeds) ([5]; CaCl2 3 mM, IAA 0.01 mM): +27%
- Wt. of treated seed ([5]; CaCl2 3 mM, IAA 0.01 mM): 319 g
- Percent increases (marketable yield) (Peas (cv. Dark Skin); CaCl2 10 mM, no IAA): +35%
- Fresh wt (marketable yield) (Peas (cv. Dark Skin); CaCl2 10 mM, no IAA, control 59): 78 gm
- Percent increases (marketable yield) (Peas (cv. Dark Skin); CaCl2 15 mM, no IAA): +63%
- Fresh wt (marketable yield) (Peas (cv. Dark Skin); CaCl2 15 mM, no IAA): 97 gm
- Percent increases (marketable yield) (Peas (cv. Dark Skin); CaCl2 50 mM, IAA 10 μM): +32%
- Fresh wt (marketable yield) (Peas (cv. Dark Skin); CaCl2 50 mM, IAA 10 μM): 79 gm
- Percent increases (marketable yield) (Peas (cv. Dark Skin); CaCl2 75 mM, IAA 10 μM): +69%
- Fresh wt (marketable yield) (Peas (cv. Dark Skin); CaCl2 75 mM, IAA 10 μM): 100 gm
- Percent increases (crop yield) (Radishes (cv. Champion); CaCl2 10 mM, no IAA): 32%
- Dry wt. (crop yield) (Radishes (cv. Champion); CaCl2 10 mM, no IAA, control 93 g): 123 g
- Percent increases (crop yield) (Radishes (cv. Champion); CaCl2 50 mM, IAA 10 μM): +69%
- Dry wt. (crop yield) (Radishes (cv. Champion); CaCl2 50 mM, IAA 10 μM): 157 g
- Dry wt. increase ([6]; Formulation 4): -3%
- Dry wt. increase ([6]; Formulation 11): -8%
- Percent increases (size of seeds) [7, 8]: +25%
- Wt. of treated seed [7, 8]: 0.40 g
- Percent increases (size of seeds) [7, 9]: +6%
- Wt. of treated seed [7, 9]: 0.34 g
- Fresh wt. (marketable yield) [7, 10]: 15353 g
- Percent increases (marketable yield) [7, 10]: +38%
- Fresh wt. (marketable yield) [7, 11]: 22283 g
- Percent increases (marketable yield) [7, 11]: +45%
- Early yield over controls [7, 12]: 72%
- Late yield over controls [7, 12]: 67%
- Fresh wt. (marketable yield) [7, 13]: 5679 g
- Percent increases (marketable yield) [7, 13]: +26%
- Fresh wt. (marketable yield) [7, 14]: 6225 g
- Percent increases (marketable yield) [7, 14]: +38%
- Fresh wt. (marketable yield) [7, 15]: 14079 g
- Percent increases (marketable yield) [7, 15]: +7%
- Fresh wt. (marketable yield) [7, 16]: 20880 g
- Percent increases (marketable yield) [7, 16]: +59%
